Measured values from ChEMBL document CHEMBL2346657, “Synthesis of novel 2-amino-4-(5'-substituted 2'-phenyl-1H-indol-3'-yl)-6-aryl-4H-pyran-3-carbonitrile derivatives as antimicrobial and antioxidant agents” (2013).
Activity calls are given as the source filed them.

Legend:
Assay type in all cases: functional
Aspergillus oryzae [1] = assay: Antimicrobial activity against Aspergillus oryzae MTCC 3567 at 500 ug/ml after 72 hrs by cup plate method; details: MTCC 3567, 72 h, read-out: IZ
Aspergillus niger [2] = assay: Antimicrobial activity against Aspergillus niger MTCC 281 at 1000 ug/ml after 72 hrs by cup plate method; details: MTCC 281, 72 h, read-out: IZ
Aspergillus flavus [3] = assay: Antimicrobial activity against Aspergillus flavus MTCC 1973 at 750 ug/ml after 72 hrs by cup plate method; details: MTCC 1973, 72 h, read-out: IZ
Aspergillus oryzae [4] = assay: Antimicrobial activity against Aspergillus oryzae MTCC 3567 at 1000 ug/ml after 72 hrs by cup plate method; details: MTCC 3567, 72 h, read-out: IZ
Pseudomonas aeruginosa [5] = assay: Antimicrobial activity against Pseudomonas aeruginosa MTCC 1688 at 500 ug/ml after 24 hrs by cup plate method; details: MTCC 1688, 24 h, read-out: IZ
Aspergillus oryzae [6] = assay: Antimicrobial activity against Aspergillus oryzae MTCC 3567 at 750 ug/ml after 72 hrs by cup plate method; details: MTCC 3567, 72 h, read-out: IZ
Pseudomonas aeruginosa [7] = assay: Antimicrobial activity against Pseudomonas aeruginosa MTCC 1688 at 1000 ug/ml after 24 hrs by cup plate method; details: MTCC 1688, 24 h, read-out: IZ
Escherichia coli [8] = assay: Antimicrobial activity against Escherichia coli MTCC 723 at 1000 ug/ml after 24 hrs by cup plate method; details: MTCC 723, 24 h, read-out: IZ
[9] = system: Radical scavenging activity; assay: Antioxidant activity assessed as DPPH radical scavenging activity at 100 ug/ml
[10] = Antioxidant activity assessed as metal chelating activity by measuring inhibition of ferrozine-Fe2+ complex formation at 25 to 100 ug/ml
Staphylococcus aureus [11] = assay: Antimicrobial activity against Staphylococcus aureus ATCC 29513 at 1000 ug/ml after 24 hrs by cup plate method; details: ATCC 29513, 24 h, read-out: IZ
Klebsiella pneumoniae [12] = assay: Antimicrobial activity against Klebsiella pneumoniae NCTC 13368 at 500 ug/ml after 24 hrs by cup plate method; details: NCTC 13368, 24 h, read-out: IZ
Aspergillus flavus [13] = assay: Antimicrobial activity against Aspergillus flavus MTCC 1973 at 1000 ug/ml after 72 hrs by cup plate method; details: MTCC 1973, 72 h, read-out: IZ
Staphylococcus aureus [14] = assay: Antimicrobial activity against Staphylococcus aureus ATCC 29513 at 500 ug/ml after 24 hrs by cup plate method; details: ATCC 29513, 24 h, read-out: IZ
Escherichia coli [15] = assay: Antimicrobial activity against Escherichia coli MTCC 723 at 500 ug/ml after 24 hrs by cup plate method; details: MTCC 723, 24 h, read-out: IZ
Klebsiella pneumoniae [16] = assay: Antimicrobial activity against Klebsiella pneumoniae NCTC 13368 at 1000 ug/ml after 24 hrs by cup plate method; details: NCTC 13368, 24 h, read-out: IZ
Klebsiella pneumoniae [17] = assay: Antimicrobial activity against Klebsiella pneumoniae NCTC 13368 at 750 ug/ml after 24 hrs by cup plate method; details: NCTC 13368, 24 h, read-out: IZ
Staphylococcus aureus [18] = assay: Antimicrobial activity against Staphylococcus aureus ATCC 29513 at 750 ug/ml after 24 hrs by cup plate method; details: ATCC 29513, 24 h, read-out: IZ
Aspergillus niger [19] = assay: Antimicrobial activity against Aspergillus niger MTCC 281 at 750 ug/ml after 72 hrs by cup plate method; details: MTCC 281, 72 h, read-out: IZ
Pseudomonas aeruginosa [20] = assay: Antimicrobial activity against Pseudomonas aeruginosa MTCC 1688 at 750 ug/ml after 24 hrs by cup plate method; details: MTCC 1688, 24 h, read-out: IZ
Aspergillus flavus [21] = assay: Antimicrobial activity against Aspergillus flavus MTCC 1973 at 500 ug/ml after 72 hrs by cup plate method; details: MTCC 1973, 72 h, read-out: IZ
Aspergillus niger [22] = assay: Antimicrobial activity against Aspergillus niger MTCC 281 at 500 ug/ml after 72 hrs by cup plate method; details: MTCC 281, 72 h, read-out: IZ
Escherichia coli [23] = assay: Antimicrobial activity against Escherichia coli MTCC 723 at 750 ug/ml after 24 hrs by cup plate method; details: MTCC 723, 24 h, read-out: IZ
Aspergillus terreus [24] = assay: Antimicrobial activity against Aspergillus terreus MTCC 1782 at 1000 ug/ml after 72 hrs by cup plate method; details: MTCC 1782, 72 h, read-out: IZ
Aspergillus terreus [25] = assay: Antimicrobial activity against Aspergillus terreus MTCC 1782 at 750 ug/ml after 72 hrs by cup plate method; details: MTCC 1782, 72 h, read-out: IZ
Aspergillus terreus [26] = assay: Antimicrobial activity against Aspergillus terreus MTCC 1782 at 500 ug/ml after 72 hrs by cup plate method; details: MTCC 1782, 72 h, read-out: IZ

Structure (SMILES)	zone of inhibition at 500 µg/mL (Aspergillus oryzae [1])	zone of inhibition at 1000 µg/mL (Aspergillus niger [2])	zone of inhibition at 750 µg/mL (Aspergillus flavus [3])	zone of inhibition at 1000 µg/mL (Aspergillus oryzae [4])	zone of inhibition at 500 µg/mL (Pseudomonas aeruginosa [5])	zone of inhibition at 750 µg/mL (Aspergillus oryzae [6])	zone of inhibition at 1000 µg/mL (Pseudomonas aeruginosa [7])	zone of inhibition at 1000 µg/mL (Escherichia coli [8])	Activity [10]	zone of inhibition at 1000 µg/mL (Staphylococcus aureus [11])	zone of inhibition at 500 µg/mL (Klebsiella pneumoniae [12])	zone of inhibition at 1000 µg/mL (Aspergillus flavus [13])	zone of inhibition at 500 µg/mL (Staphylococcus aureus [14])	zone of inhibition at 500 µg/mL (Escherichia coli [15])	zone of inhibition at 1000 µg/mL (Klebsiella pneumoniae [16])	zone of inhibition at 750 µg/mL (Klebsiella pneumoniae [17])	zone of inhibition at 750 µg/mL (Staphylococcus aureus [18])	zone of inhibition at 750 µg/mL (Aspergillus niger [19])	zone of inhibition at 750 µg/mL (Pseudomonas aeruginosa [20])	zone of inhibition at 500 µg/mL (Aspergillus flavus [21])	other results
N#CC1=C(N)OC(c2ccc(Cl)cc2)=CC1c1c(-c2ccccc2)[nH]c2ccc(Cl)cc12 (stereo not drawn)	10 mm	10 mm	12 mm	9 mm	10 mm	10 mm	10 mm	14 mm	Active	13 mm	10 mm	13 mm	13 mm	13 mm	10 mm	10 mm	13 mm	10 mm	10 mm	12 mm	Activity [9]: Active; zone of inhibition at 500 µg/mL (Aspergillus niger [22]): 10 mm; zone of inhibition at 750 µg/mL (Escherichia coli [23]): 13 mm
Nc1nc(=O)[nH]c2c1C(c1c(-c3ccccc3)[nH]c3ccccc13)C=C(c1ccc(Cl)cc1)O2 (stereo not drawn)	6 mm	5 mm	12 mm	3 mm	12 mm	5 mm	13 mm	14 mm	Active	14 mm	11 mm	12 mm	14 mm	13 mm	8 mm	10 mm	14 mm	5 mm	12 mm	12 mm	zone of inhibition at 1000 µg/mL (Aspergillus terreus [24]): 4 mm; zone of inhibition at 750 µg/mL (Aspergillus terreus [25]): 4 mm; zone of inhibition at 500 µg/mL (Aspergillus terreus [26]): 6 mm; zone of inhibition at 500 µg/mL (Aspergillus niger [22]): 5 mm; zone of inhibition at 750 µg/mL (Escherichia coli [23]): 13 mm
N#CC1=C(N)OC(c2ccccc2)=CC1c1c(-c2ccccc2)[nH]c2ccc(Cl)cc12 (stereo not drawn)	8 mm	10 mm	3 mm	3 mm	12 mm	3 mm	13 mm	10 mm	Active	9 mm	10 mm	3 mm	10 mm	10 mm	10 mm	10 mm	9 mm	9 mm	12 mm	3 mm	zone of inhibition at 1000 µg/mL (Aspergillus terreus [24]): 8 mm; zone of inhibition at 750 µg/mL (Aspergillus terreus [25]): 8 mm; zone of inhibition at 500 µg/mL (Aspergillus terreus [26]): 9 mm; zone of inhibition at 500 µg/mL (Aspergillus niger [22]): 8 mm; zone of inhibition at 750 µg/mL (Escherichia coli [23]): 10 mm
Cc1ccc2[nH]c(-c3ccccc3)c(C3C=C(c4ccc(Cl)cc4)Oc4[nH]c(=O)nc(N)c43)c2c1 (stereo not drawn)	8 mm	6 mm	5 mm	8 mm	0 mm	8 mm	0 mm	3 mm	Active	7 mm	4 mm	4 mm	5 mm	10 mm	3 mm	3 mm	5 mm	4 mm	0 mm	8 mm	zone of inhibition at 1000 µg/mL (Aspergillus terreus [24]): 5 mm; zone of inhibition at 750 µg/mL (Aspergillus terreus [25]): 6 mm; zone of inhibition at 500 µg/mL (Aspergillus terreus [26]): 7 mm; zone of inhibition at 500 µg/mL (Aspergillus niger [22]): 5 mm; zone of inhibition at 750 µg/mL (Escherichia coli [23]): 8 mm
Cc1ccc2[nH]c(-c3ccccc3)c(C3C=C(c4ccc(Cl)cc4)Oc4nc5oc(=O)c(C#N)c(N)c5c(N)c43)c2c1 (stereo not drawn)	4 mm	10 mm	5 mm	3 mm	10 mm	3 mm	10 mm	13 mm	Active	14 mm	11 mm	5 mm	13 mm	13 mm	9 mm	11 mm	13 mm	10 mm	10 mm	5 mm	zone of inhibition at 1000 µg/mL (Aspergillus terreus [24]): 8 mm; zone of inhibition at 750 µg/mL (Aspergillus terreus [25]): 9 mm; zone of inhibition at 500 µg/mL (Aspergillus terreus [26]): 10 mm; zone of inhibition at 500 µg/mL (Aspergillus niger [22]): 10 mm; zone of inhibition at 750 µg/mL (Escherichia coli [23]): 13 mm
Cc1ccc2[nH]c(-c3ccccc3)c(C3C=C(c4ccc(Cl)cc4)Oc4nc[nH]c(=O)c43)c2c1 (stereo not drawn)	8 mm	11 mm	5 mm	8 mm	4 mm	8 mm	4 mm	8 mm	Active	10 mm	5 mm	5 mm	10 mm	8 mm	5 mm	5 mm	10 mm	10 mm	4 mm	5 mm	zone of inhibition at 1000 µg/mL (Aspergillus terreus [24]): 6 mm; zone of inhibition at 750 µg/mL (Aspergillus terreus [25]): 6 mm; zone of inhibition at 500 µg/mL (Aspergillus terreus [26]): 6 mm; zone of inhibition at 500 µg/mL (Aspergillus niger [22]): 10 mm; zone of inhibition at 750 µg/mL (Escherichia coli [23]): 8 mm
O=c1[nH]cnc2c1C(c1c(-c3ccccc3)[nH]c3ccccc13)C=C(c1ccc(Cl)cc1)O2 (stereo not drawn)	10 mm	8 mm	9 mm	10 mm	10 mm	10 mm	10 mm	9 mm	Active	5 mm	9 mm	8 mm	5 mm	9 mm	10 mm	9 mm	5 mm	8 mm	10 mm	10 mm	zone of inhibition at 1000 µg/mL (Aspergillus terreus [24]): 5 mm; zone of inhibition at 750 µg/mL (Aspergillus terreus [25]): 6 mm; zone of inhibition at 500 µg/mL (Aspergillus terreus [26]): 6 mm; zone of inhibition at 500 µg/mL (Aspergillus niger [22]): 8 mm; zone of inhibition at 750 µg/mL (Escherichia coli [23]): 9 mm
Cc1ccc(C2=CC(c3c(-c4ccccc4)[nH]c4ccc(C)cc34)c3c(nc[nH]c3=O)O2)cc1 (stereo not drawn)	3 mm	3 mm	9 mm	3 mm	8 mm	3 mm	8 mm	2 mm	Active	2 mm	8 mm	9 mm	2 mm	2 mm	8 mm	8 mm	2 mm	3 mm	8 mm	10 mm	zone of inhibition at 1000 µg/mL (Aspergillus terreus [24]): 9 mm; zone of inhibition at 750 µg/mL (Aspergillus terreus [25]): 9 mm; zone of inhibition at 500 µg/mL (Aspergillus terreus [26]): 9 mm; zone of inhibition at 500 µg/mL (Aspergillus niger [22]): 3 mm; zone of inhibition at 750 µg/mL (Escherichia coli [23]): 2 mm
